Organism: Homo sapiens
Test: Hypocholesterolemic effect in hypercholesterolemia patient assessed as decrease in LDL cholesterol level
Type: functional
Parameters: scale not given: the % may be the effect or the level left

## CC[C@H](C)C(=O)O[C@H]1C[C@@H](C)C=C2C=C[C@H](C)[C@H](CC[C@@H]3C[C@@H](O)CC(=O)O3)[C@H]21 [LOVASTATIN]
  Activity: 22%

From ChEMBL document CHEMBL4145452, “Polymeric bile acid sequestrants: Review of design, in vitro binding activities, and hypocholesterolemic effects” (Eur J Med Chem, 2018)
